“And” between values parts separate entries of the source, which are not always exact repeats. Identical values can stand only once. Toxic doses and inconclusive results are not listed.
Tested on: BDF1 mice, P388 leukemia ip, median survival T/C
Assay: NCI In Vivo Anticancer Drug Screen. Data for tumor model P388 Leukemia (intraperitoneal) in B6D2F1 (BDF1) mice
Conditions: endpoint: median survival time, higher = longer survival
Summary of the method: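 Compound-treated tumour-bearing mice were compared with vehicle-treated controls. Survival was recorded, and the value is the treated-group measurement divided by the control-group measurement (T/C).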

[1] = dose: 100.0 mg/kg/injection, schedule: Q01DX009 (ip), vehicle: saline
[2] = dose: 100.0 mg/kg/injection, schedule: Q01DX009 (ip), vehicle: saline with Tween-80
[3] = dose: 200.0 mg/kg/injection, schedule: Q01DX009 (ip), vehicle: saline with Tween-80
[4] = dose: 50.0 mg/kg/injection, schedule: Q01DX009 (ip), vehicle: saline
[5] = dose: 100.0 mg/kg/injection, schedule: Q04DX003 (ip), vehicle: saline with Tween-80
[6] = dose: 200.0 mg/kg/injection, schedule: Q04DX003 (ip), vehicle: saline with Tween-80
[7] = dose: 400.0 mg/kg/injection, schedule: Q04DX003 (ip), vehicle: saline with Tween-80

CN1CCN(Cc2nc3cccc4c3c([n+]2[O-])-c2ccccc2-4)CC1
T/C (dose: 40.0 mg/kg/injection, schedule: Q06HX032 (ip), vehicle: saline with Tween-80): 100 % of control | T/C (dose: 50.0 mg/kg/injection, schedule: Q03HX008 (ip), vehicle: saline with Tween-80): 107 % of control | T/C (dose: 50.0 mg/kg/injection, schedule: Q03HX024 (ip), vehicle: saline with Tween-80): 109 % of control | T/C (dose: 80.0 mg/kg/injection, schedule: Q01DX009 (ip), vehicle: saline with Tween-80): 118 % of control | T/C (dose: 80.0 mg/kg/injection, schedule: Q03HX008 (ip), vehicle: saline with Tween-80): 120 % of control | T/C [1]: 158 % of control | T/C (dose: 100.0 mg/kg/injection, schedule: Q01DX009 (oral), vehicle: saline with Tween-80): 107 % of control | T/C (dose: 100.0 mg/kg/injection, schedule: Q01DX Z (ip), vehicle: saline): 159 % of control | T/C (dose: 100.0 mg/kg/injection, schedule: Q03HX008 (oral), vehicle: saline with Tween-80): 105 % of control | T/C (dose: 100.0 mg/kg/injection, schedule: Q03HX024 (ip), vehicle: saline with Tween-80): 162 % of control | T/C (dose: 100.0 mg/kg/injection, schedule: Q08HX009 (oral), vehicle: saline with Tween-80): 100 % of control | T/C (dose: 100.0 mg/kg/injection, schedule: Q08HX027 (oral), vehicle: saline with Tween-80): 120 % of control | T/C (dose: 150.0 mg/kg/injection, schedule: Q01DX009 (ip), vehicle: saline): 150 % of control | T/C (dose: 150.0 mg/kg/injection, schedule: Q01DX009 (oral), vehicle: saline with Tween-80): 112 % of control | T/C (dose: 150.0 mg/kg/injection, schedule: Q04DX003 (oral), vehicle: saline with Tween-80): 99 % of control | T/C (dose: 150.0 mg/kg/injection, schedule: Q08HX009 (oral), vehicle: saline with Tween-80): 112 % of control | T/C (dose: 175.0 mg/kg/injection, schedule: Q08HX027 (oral), vehicle: saline with Tween-80): 161 % of control | T/C (dose: 200.0 mg/kg/injection, schedule: Q01DX009 (oral), vehicle: saline with Tween-80): 110 % of control | T/C (dose: 200.0 mg/kg/injection, schedule: Q03HX024 (oral), vehicle: saline with Tween-80): 152 % of control | T/C (dose: 200.0 mg/kg/injection, schedule: Q04DX003 (oral), vehicle: saline with Tween-80): 110 % of control | T/C (dose: 200.0 mg/kg/injection, schedule: Q08HX009 (oral), vehicle: saline with Tween-80): 103 % of control | T/C (dose: 200.0 mg/kg/injection, schedule: Q08HX027 (oral), vehicle: saline with Tween-80): 90 % of control | T/C (dose: 250.0 mg/kg/injection, schedule: Q01DX009 (oral), vehicle: saline with Tween-80): 117 % of control | T/C (dose: 250.0 mg/kg/injection, schedule: Q04DX003 (oral), vehicle: saline with Tween-80): 100 % of control | T/C (dose: 250.0 mg/kg/injection, schedule: Q08HX009 (oral), vehicle: saline with Tween-80): 116 % of control | T/C (dose: 300.0 mg/kg/injection, schedule: Q04DX003 (oral), vehicle: saline with Tween-80): 105 % of control

CC(C)(C)c1cc(C(C)(C)c2ccccc2)cc(Cc2cc(C(C)(C)c3ccccc3)cc(C(C)(C)C)c2O)c1O
T/C (dose: 50.0 mg/kg/injection, schedule: Q01DX009 (ip), vehicle: saline + Tween-80 + alcohol): 118 % of control | T/C (dose: 50.0 mg/kg/injection, schedule: Q01DX009 (ip), vehicle: saline with Tween-80): 96 % of control | T/C (dose: 100.0 mg/kg/injection, schedule: Q01DX009 (ip), vehicle: saline + Tween-80 + alcohol): 90 % of control | T/C [2]: 100 % of control | T/C (dose: 200.0 mg/kg/injection, schedule: Q01DX009 (ip), vehicle: saline + Tween-80 + alcohol): 115 % of control | T/C [3]: 124 % of control | T/C (dose: 400.0 mg/kg/injection, schedule: Q01DX009 (ip), vehicle: saline + Tween-80 + alcohol): 107 % of control

O=C(O)C(S)C(S)C(=O)O.[As] (configuration not stated)
T/C (dose: 25.0 mg/kg/injection, schedule: Q01DX009 (ip), vehicle: saline): 94 % of control | T/C (dose: 25.0 mg/kg/injection, schedule: Q04DX003 (ip), vehicle: saline sonified): 118 % of control | T/C [4]: 88 % of control | T/C (dose: 50.0 mg/kg/injection, schedule: Q04DX003 (ip), vehicle: saline sonified): 118 % of control | T/C [1]: 88 % of control | T/C (dose: 100.0 mg/kg/injection, schedule: Q04DX003 (ip), vehicle: saline sonified): 122 % of control

COc1ccc(/C=C(/C)[N+](=O)[O-])cc1OC
T/C (dose: 50.0 mg/kg/injection, schedule: Q01DX001 (ip), vehicle: saline with Tween-80): 109 % of control | T/C (dose: 100.0 mg/kg/injection, schedule: Q01DX001 (ip), vehicle: saline with Tween-80): 113 % of control | T/C (dose: 100.0 mg/kg/injection, schedule: Q04DX003 (ip), vehicle: Klucel (hydroxypropylcellulose) (HPC)): 104 % of control | T/C (dose: 200.0 mg/kg/injection, schedule: Q01DX001 (ip), vehicle: saline with Tween-80): 118 % of control | T/C (dose: 200.0 mg/kg/injection, schedule: Q04DX003 (ip), vehicle: Klucel (hydroxypropylcellulose) (HPC)): 109 % of control

COc1cccc2c1C(=O)c1c(O)c3c(c(O)c1C2=O)C[C@@](O)(/C(C)=N/NC(=O)c1ccc(N(C)C)cc1)C[C@@H]3OC1CC(N)C(O)C(C)O1 (some centres not stated)
T/C (dose: 0.25 mg/kg/injection, schedule: Q01DX009 (ip), vehicle: water): 96 % of control | T/C (dose: 1.0 mg/kg/injection, schedule: Q01DX009 (ip), vehicle: water): 107 % of control and 110 % of control | T/C (dose: 2.0 mg/kg/injection, schedule: Q01DX009 (ip), vehicle: water): 233 % of control and 154 % of control | T/C (dose: 4.0 mg/kg/injection, schedule: Q01DX009 (ip), vehicle: water): 179 % of control | T/C (dose: 8.0 mg/kg/injection, schedule: Q01DX009 (ip), vehicle: water): 243 % of control

CCCCCCCCCCSS(=O)(=O)O
T/C (dose: 25.0 mg/kg/injection, schedule: Q01DX001 (ip), vehicle: other): 87 % of control | T/C (dose: 50.0 mg/kg/injection, schedule: Q01DX001 (ip), vehicle: other): 95 % of control | T/C (dose: 100.0 mg/kg/injection, schedule: Q01DX001 (ip), vehicle: other): 95 % of control

CCCCN(CCCC)CCOC(=O)c1ccc([N+](=O)[O-])cc1
T/C (dose: 50.0 mg/kg/injection, schedule: Q01DX001 (ip), vehicle: saline): 100 % of control | T/C (dose: 100.0 mg/kg/injection, schedule: Q01DX001 (ip), vehicle: saline): 100 % of control | T/C (dose: 200.0 mg/kg/injection, schedule: Q01DX001 (ip), vehicle: saline): 100 % of control

O=C(O)C1C=CC(C(=O)O)CC1 (configuration not stated)
T/C [5]: 95 % of control | T/C [6]: 93 % of control | T/C [7]: 93 % of control

COc1cc(C(C)O)cc(OC)c1OC (configuration not stated)
T/C [2]: 92 % of control | T/C [5]: 95 % of control | T/C [3]: 92 % of control | T/C [6]: 104 % of control | T/C [7]: 95 % of control

O=C1c2ccccc2-c2cc3ccccc3cc21
T/C (dose: 75.0 mg/kg/injection, schedule: Q04DX003 (ip), vehicle: saline sonified): 100 % of control | T/C (dose: 150.0 mg/kg/injection, schedule: Q04DX003 (ip), vehicle: saline sonified): 110 % of control | T/C (dose: 300.0 mg/kg/injection, schedule: Q04DX003 (ip), vehicle: saline sonified): 110 % of control

N=C1N=C(C(F)(F)F)N=C1c1[nH]c(C(F)(F)F)nc1N
T/C (dose: 3.12 mg/kg/injection, schedule: Q01DX009 (ip), vehicle: water): 105 % of control | T/C (dose: 6.25 mg/kg/injection, schedule: Q01DX009 (ip), vehicle: water): 105 % of control | T/C (dose: 12.5 mg/kg/injection, schedule: Q01DX009 (ip), vehicle: water): 113 % of control | T/C (dose: 25.0 mg/kg/injection, schedule: Q01DX009 (ip), vehicle: water): 103 % of control and 105 % of control | T/C (dose: 25.0 mg/kg/injection, schedule: Q04DX003 (ip), vehicle: water): 100 % of control | T/C (dose: 50.0 mg/kg/injection, schedule: Q01DX009 (ip), vehicle: water): 92 % of control | T/C (dose: 50.0 mg/kg/injection, schedule: Q04DX003 (ip), vehicle: water): 99 % of control | T/C (dose: 100.0 mg/kg/injection, schedule: Q01DX009 (ip), vehicle: water): 106 % of control | T/C (dose: 100.0 mg/kg/injection, schedule: Q04DX003 (ip), vehicle: water): 98 % of control | T/C (dose: 200.0 mg/kg/injection, schedule: Q01DX009 (ip), vehicle: water): 97 % of control | T/C (dose: 200.0 mg/kg/injection, schedule: Q04DX003 (ip), vehicle: water): 94 % of control | T/C (dose: 400.0 mg/kg/injection, schedule: Q01DX009 (ip), vehicle: water): 104 % of control | T/C (dose: 400.0 mg/kg/injection, schedule: Q04DX003 (ip), vehicle: water): 109 % of control

CCB(CC)OCC1OB(CC)OC1C1OB(CC)OC1COB(CC)CC (configuration not stated)
T/C [4]: 99 % of control | T/C [1]: 97 % of control | T/C (dose: 200.0 mg/kg/injection, schedule: Q01DX009 (ip), vehicle: saline): 99 % of control

From PubChem BioAssay AID328 (DTP/NCI, 2004)
